Test results taken from patent publication US10166294B2, “Multifunctional forms of polyoxazoline copolymers and drug compositions comprising the same” (priority 2008, dated 2019).
“And” between values parts separate entries of the source, which are not always exact repeats. Equal entries are not always repeated. Where two headings read alike, the source gives them in different places.

Assays:
[1] = system: platinum resistant ovarian cancer cells (A2780/DDPt); conditions: for Days to 3 Times Tumor Weight: median; for T − C (tumor growth delay): median time to 3 times original size, drug group minus control; for Persistence of tumor growth delay profiles: FIGS. 2A and 2B, dotted lines
Method: Female athymic (Ncr:Nu) mice were implanted subcutaneously with A2780/DDPt tumor fragments and the tumors were allowed to reach a weight range of 163 to 189 mg. […] One group of animals was treated with cisplatin at a dose of 8 mg/kg. The control group received normal saline. The animals were weighed and the tumors measured twice weekly after administration of the first drug injection.

[2] = system: human colorectal cancer cells (HT-29); conditions: for Days to 2 Times Tumor Weight: median; for Tumor Regression Complete / Tumor Regression Partial: n=10 mice; for Tumor Regression Complete: complete: unpalpable; for T − C (tumor growth delay): median time to 2 times original size, drug group minus control; for Tumor Regression Partial: partial: <50% of size on day 1
Method: Female athymic (Ncr:Nu) mice were implanted subcutaneously with HT-29 tumor fragments and the tumors were allowed to reach a weight range of 162 to 188 mg. […] The control group received normal saline. The animals were weighed and the tumors measured twice weekly after administration of the first drug injection.

[3] = system: oropharyngeal carcinoma cancer cells (KB)
Method: Female athymic (Ncr:Nu) mice were implanted subcutaneously with KB tumor fragments and the tumors were allowed to reach a weight range of 160 to 190 mg. […] The control group received normal saline. The animals were weighed and the tumors measured twice weekly after administration of the first drug injection.

[4] = 40 mg/kg i.v. every fourth day x3
[5] = 60 mg/kg i.v. every fourth day x3
[6] = 90 mg/kg i.v. every fourth day x3
[7] = 40, 60 or 90 mg/kg i.v. every fourth day x3
[8] = all doses (40, 60, 90 mg/kg i.v.)
[9] = any of the doses (40, 60, 90 mg/kg)

Compound: N.N.[Cl][Pt][Cl] [Cisplatin]
- Days to 3 Times Tumor Weight ([1]; 8 mg/kg): 8.9 days
- T − C (tumor growth delay) ([1]; 8 mg/kg): 0.5 days

Compound: H-(Irino.HCl)10(EOZ)200-T-PA [POZ-irinotecan]
- Days to 3 Times Tumor Weight [1, 4]: 12.7 days
- T − C (tumor growth delay) ([1]; 40 mg/kg): 4.3 days
- Days to 3 Times Tumor Weight [1, 5]: 20.3 days
- T − C (tumor growth delay) ([1]; 60 mg/kg): 11.9 days
- Tumor growth delay (T-C value) compared to irinotecan ([1]; 90 mg/kg dose, p<0.001): significantly higher
- Days to 3 Times Tumor Weight [1, 6]: 36.3 days
- T − C (tumor growth delay) ([1]; 90 mg/kg): 27.9 days
- Persistence of tumor growth delay profiles [1]: at least 32 days
- Days to 2 Times Tumor Weight [2, 4]: 31.4 days
- Tumor Regression Complete [2, 4]: 0
- T − C (tumor growth delay) ([2]; 40 mg/kg): 23.4 days
- Median Duration of Regression [2, 5]: 18 days
- Days to 2 Times Tumor Weight [2, 5]: >60.0 days
- Tumor Regression Complete [2, 5]: 1
- T − C (tumor growth delay) ([2]; 60 mg/kg): >52 days
- Median Duration of Regression [2, 6]: 25 days
- Days to 2 Times Tumor Weight [2, 6]: >60.0 days
- Tumor Regression Complete [2, 6]: 7
- T − C (tumor growth delay) ([2]; 90 mg/kg): >52 days
- Tumor growth delay (T-C value) compared to irinotecan ([2]; all 3 doses tested, p<0.001): significantly higher

Compound: CCc1c2c(nc3ccc(OC(=O)N4CCC(N5CCCCC5)CC4)cc13)-c1cc3c(c(=O)n1C2)COC(=O)[C@]3(O)CC [Irinotecan]
- Days to 3 Times Tumor Weight [1, 4]: 13.0 days
- T − C (tumor growth delay) ([1]; 40 mg/kg): 4.6 days
- Days to 3 Times Tumor Weight [1, 5]: 16.4 days
- T − C (tumor growth delay) ([1]; 60 mg/kg): 8.0 days
- Days to 3 Times Tumor Weight [1, 6]: 18.6 days
- T − C (tumor growth delay) ([1]; 90 mg/kg): 10.2 days
- Decrease in tumor growth compared to the control group ([1]; 40, 60, 90 mg/kg groups): did not show a statistically significant decrease
- Maximum loss in body weight [1, 7]: 2%
- Persistence of tumor growth delay profiles [1]: 14 days
- Tolerability [1, 8]: well tolerated
- Tumor Regression Complete [2, 4]: 0
- Tumor Regression Partial [2, 4]: 0
- T − C (tumor growth delay) ([2]; 40 mg/kg): 8.8 days
- Days to 2 Times Tumor Weight [2, 5]: 21.4 days
- Tumor Regression Complete [2, 5]: 0
- Tumor Regression Partial [2, 5]: 0
- Tumor Regression Complete [2, 6]: 0
- Tumor Regression Partial [2, 6]: 0
- Decrease in tumor growth compared to the control group ([2]; 40, 60, 90 mg/kg groups): did not show a statistically significant decrease
- Maximum loss in body weight [2, 7]: 8%
- Tolerability [2, 8]: well tolerated
- Tumor regression [2, 9]: not observed
- Tolerability [3, 8]: well tolerated
- Tumor regression [3, 9]: not observed
- Maximum loss in body weight ([3]; mouse, in vivo): 2%

Compound: H-(Irino.HCl)10(EOZ)190-T-Folate [Folate-POZ-irinotecan]
- Complete tumor regression, share of mice ([3]; mouse, in vivo): 70% and 50%
- Complete tumor regression, share of treated mice ([3]; mouse, in vivo): > 50%
- Tumor growth delay (T-C value) compared to irinotecan ([3]; mouse, in vivo): significantly higher
